# Measurements reported in patent US6596687B1, “Cell adhesion inhibitors” (Biogen, Inc., priority 1995, dated 2003).
# Numbered stars: 1 amine (or outer) side, 2 acyl side, 3 side chain; on linkers, the order of the positions; unused ones are H or OH. Square brackets hold non-standard residues; d marks the D form. Peptide text beside a SMILES is read from it. * marks the point of attachment. X3 = COc1cc(CC(=O)[*:2])ccc1N[*:1]; X2 = O=C(Cc1ccc(N[*:1])cc1)[*:2]; NH(2-Me-phenyl) = Cc1ccccc1N*; CO = O=C([*:1])[*:2]; NHPh = c1ccc(N*)cc1; X1 = Oc1ccccc1N*
# Target: T1, VLA4 (Homo sapiens, UniProt P05556+P13612)
# T1 construct: endogenous in cells; host or cells: Ramos cells
# T1 sequence (P13612 34-1032): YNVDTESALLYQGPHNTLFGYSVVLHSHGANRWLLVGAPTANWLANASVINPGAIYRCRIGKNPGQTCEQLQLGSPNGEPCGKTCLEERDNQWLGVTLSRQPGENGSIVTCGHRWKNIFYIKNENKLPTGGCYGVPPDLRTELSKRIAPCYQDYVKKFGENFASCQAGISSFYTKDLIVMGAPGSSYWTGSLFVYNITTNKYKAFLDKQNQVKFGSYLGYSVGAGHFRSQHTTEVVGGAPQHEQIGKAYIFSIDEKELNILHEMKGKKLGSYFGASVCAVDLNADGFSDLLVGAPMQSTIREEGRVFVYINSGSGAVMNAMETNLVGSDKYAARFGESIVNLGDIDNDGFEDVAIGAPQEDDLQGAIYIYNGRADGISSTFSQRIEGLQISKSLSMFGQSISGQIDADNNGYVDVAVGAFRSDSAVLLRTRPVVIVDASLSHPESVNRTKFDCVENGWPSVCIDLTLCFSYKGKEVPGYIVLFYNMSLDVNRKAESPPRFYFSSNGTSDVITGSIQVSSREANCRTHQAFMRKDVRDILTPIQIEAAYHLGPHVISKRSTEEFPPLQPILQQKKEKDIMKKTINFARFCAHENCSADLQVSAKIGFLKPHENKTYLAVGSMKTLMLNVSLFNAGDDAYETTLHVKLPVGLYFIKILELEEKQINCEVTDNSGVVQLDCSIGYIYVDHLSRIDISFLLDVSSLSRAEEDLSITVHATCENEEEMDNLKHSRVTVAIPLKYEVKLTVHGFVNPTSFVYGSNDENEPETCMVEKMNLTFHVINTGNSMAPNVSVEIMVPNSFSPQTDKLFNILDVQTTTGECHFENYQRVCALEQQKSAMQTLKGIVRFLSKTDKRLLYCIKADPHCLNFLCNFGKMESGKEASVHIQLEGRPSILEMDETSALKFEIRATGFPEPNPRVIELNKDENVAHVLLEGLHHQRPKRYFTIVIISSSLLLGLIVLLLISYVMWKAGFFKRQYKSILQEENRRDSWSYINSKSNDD
# T1 sequence (P05556 21-798): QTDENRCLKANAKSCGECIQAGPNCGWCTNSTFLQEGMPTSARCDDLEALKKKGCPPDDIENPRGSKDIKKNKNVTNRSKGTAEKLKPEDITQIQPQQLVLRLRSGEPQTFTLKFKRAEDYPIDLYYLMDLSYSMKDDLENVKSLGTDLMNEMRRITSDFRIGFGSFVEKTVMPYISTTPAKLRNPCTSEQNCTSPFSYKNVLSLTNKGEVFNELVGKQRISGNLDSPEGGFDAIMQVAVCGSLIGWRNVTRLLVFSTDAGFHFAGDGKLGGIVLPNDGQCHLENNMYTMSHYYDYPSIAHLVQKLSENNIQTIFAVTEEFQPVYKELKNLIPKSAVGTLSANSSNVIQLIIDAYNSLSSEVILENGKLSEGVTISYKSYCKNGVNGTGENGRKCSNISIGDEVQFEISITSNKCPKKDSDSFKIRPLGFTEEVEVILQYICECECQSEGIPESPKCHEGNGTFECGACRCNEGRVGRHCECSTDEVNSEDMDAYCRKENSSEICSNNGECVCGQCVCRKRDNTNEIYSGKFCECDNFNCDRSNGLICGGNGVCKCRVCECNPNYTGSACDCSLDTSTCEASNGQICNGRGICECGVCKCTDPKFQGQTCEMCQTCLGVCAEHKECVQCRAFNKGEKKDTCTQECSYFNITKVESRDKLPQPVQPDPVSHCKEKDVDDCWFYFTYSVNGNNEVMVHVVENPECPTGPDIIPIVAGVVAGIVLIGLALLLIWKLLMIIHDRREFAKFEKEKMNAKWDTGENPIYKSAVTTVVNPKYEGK
# Test: Inhibition of VLA4-dependent adhesion of Ramos cells to BSA-CS1
# Format: cell-based
# Conditions: not given
# Source text: For example, the cell adhesion inhibitory activity of these compounds may be measured by determining the concentration of inhibitor required to block the binding of VLA-4-expressing cells to fibronectin- or CS1-coated plates. In this assay microtiter wells are coated with either fibronectin (containing the CS1-sequence) or CS-1. If CS-1 is used, it must be conjugated to a carrier protein, such as bovine serum albumin, in order to bind to the wells. Once the wells are coated, varying concentrations of the test compound are then added together with appropriately labelled, VLA-4-expressing cells. Alternatively, the test compound may be added first and allowed to incubate with the coated wells prior to the addition of the cells. The cells are allowed to incubate in the wells for at least 30 minutes. Following incubation, the wells are emptied and washed. Inhibition of binding is measured by quantitating the fluorescence or radioactivity bound to the plate for each of the various concentrations of test compound, as well as for controls containing no test compound.
# VLA-4-expressing cells that may be utilized in this assay include Ramos cells, Jurkat cells, A375 melanoma cells, as well as human peripheral blood lymophocytes (PBLs). The cells used in this assay may be fluorescently or radioactively labelled.
# This assay was used to assess the potency of VLA4-directed inhibitory compounds of this invention. 1.
# We dissolved BSA-SMCC (Pierce Chemical, Rockford, Ill.; Catalog #77115) in H2O at a concentration of 10 mg/mL. [SEQ ID NO:4]: […](“Cys-Tyr-CS1 peptide”), which we synthesized by conventional solid phase chemistry and purified by HPLC, was dissolved in 10 mM HEPES pH 5, 50 mM NaCl and 0.1 mM EDTA also at a concentration of 10 mg/mL. We then mixed 500 μL of BSA-SMCC, 250 μL of Cys-Tyr-CS1 peptide and 75 μL of 1 mM HEPES pH 7.5 and allowed the conjugation reaction to proceed for 30 minutes. We stopped the reaction by adding 1 μL of beta-mercaptoethanol. Samples were analyzed for cross-linking by SDS-PAGE.
# We coated the wells of a Linbro titertek polystyrene 96-well flat bottom plate (Flow Laboratories, Maclean, Va.; catalog #76-231-05) with 100 μL of the above-described BSA-CS1 solution diluted to 1 μg/mL in 0.05 M NaHCO3 (15 mM NaHCO3, 35 mM Na2CO3) pH 9.2. Some wells were not coated with CS1 in order to assess non-specific cell binding (NSB). The plate was then incubated overnight at 4° C.
# Following this incubation, the contents of the wells were removed by inverting and blotting the plate. All of the wells were then blocked with 100 μL of 1% BSA in PBS, 0.02% NaN3, for a minimum of one hour at room temperature.
# Ramos cells are grown, maintained and labelled in RPMI 1640 culture medium containing 1% BSA. Just prior to running the assay, we added 2′, 7′-bis-(2-carboxyethyl)-5(and -6)carboxyfluorescein acetoxymethyl ester (“BCECF-AM”; Molecular Probes Inc., Eugene, Oregon; catalog #B-1150) to a final concentration of 2 μM to a culture of Ramos cells (4×10^6 cells/mL). We incubated the cells for 20 minutes at 37° C.
# Following labelling, the cells were washed twice in assay buffer (24 mM TRIS, 137 mM NaCl, 2.7 mM KCl, pH 7.4, containing 0.1 BSA and 2mM glucose) to remove any cations originating from the culture medium. The cells were then resuspended in assay buffer to 4×10^6 cells/mL and 2 mM MnCl2 was added to upregulate VLA4 on the surface of the cells.
# Immediately prior to running the assay, we removed the BSA blocking solution from the 96-well plates and washed the wells with 100 μL of assay buffer. We then added to each well 25 μL of test cell adhesion inhibitory compound at 2×the final concentration and 25 μL of the labelled Ramos cells. […] Each concentration of compound was tested in triplicate. The compound and cells are allowed to incubate for 30 minutes at room temperature.
row,SMILES,IC50 [µM]
1,CC(C)CC(NC(=O)C1CCc2ccccc2N1)C(=O)NC(CC(=O)O)C(=O)NC(C(=O)N(C)c1ccccc1)C(C)C (stereo not shown) [Compound 120],> 10

# Same assay, conditions: Ramos cells, BSA-CS1 coated wells, 2 mM MnCl2, 30 minutes at room temperature; read-out: IC50
row,IC50 [µM],SMILES
1,> 10,CC(C)C[C@H](NC(=O)c1ccc2ccccc2n1)C(=O)N[C@@H](CC(=O)O)C(=O)N[C@H](C(=O)N(C)c1ccccc1)C(C)C [Compound 121]
2,> 10,CC(C)C[C@H](NC(=O)C1CCc2ccccc2N1)C(=O)N[C@@H](CC(=O)O)C(=O)N[C@H](C(=O)Nc1ccc(F)cc1)C(C)C (stereo partly shown) [Compound 122]
3,> 10,CC(C)C[C@H](NC(=O)c1ccc2ccccc2n1)C(=O)N[C@@H](CC(=O)O)C(=O)N[C@H](C(=O)Nc1ccc(F)cc1)C(C)C [Compound 123]
4,> 10,CC(C)C[C@H](NC(=O)C1CCc2ccccc2N1)C(=O)N[C@@H](CC(=O)O)C(=O)N[C@H](C(=O)Nc1ccccc1)C(C)C (stereo partly shown) [Compound 124]
5,> 10,CC(C)C[C@H](NC(=O)c1ccc2ccccc2n1)C(=O)N[C@@H](CC(=O)O)C(=O)N[C@H](C(=O)Nc1ccccc1)C(C)C [Compound 125]
6,> 10,CNC(=O)[C@@H](NC(=O)[C@H](CC(=O)O)NC(=O)[C@H](CC(C)C)N(C)C(=O)c1ccccn1)C(C)C [Compound 126]
7,> 10,CC(C)C[C@H](NC(=O)c1ccc2ccccc2n1)C(=O)N[C@@H](CC(=O)O)C(=O)N[C@H](C(=O)N1CCN(c2ccccc2)CC1)C(C)C [Compound 127]
8,> 10,CNC(=O)[C@@H](NC(=O)[C@H](CC(=O)O)NC(=O)[C@H](CC(C)C)N(C)C(=O)c1ccc(OC)cc1)C(C)C [Compound 128]
9,> 10,CNC(=O)[C@@H](NC(=O)[C@H](CC(=O)O)NC(=O)[C@H](Cc1ccc(O)cc1)NC(=O)Cc1ccccc1)C(C)C [Compound 129] (HELM PEPTIDE1{[O=C(Cc1ccccc1)[*:2]].Y.D.V.[CN[*:1]]}$$$$V2.0)
10,> 10,CNC(=O)[C@@H](NC(=O)[C@H](CC(=O)O)NC(=O)[C@@H]1CCCN1C(=O)Cc1ccccc1)C(C)C [Compound 130] (HELM PEPTIDE1{[O=C(Cc1ccccc1)[*:2]].P.D.V.[CN[*:1]]}$$$$V2.0)
11,> 10,CNC(=O)[C@@H](NC(=O)[C@H](CC(=O)O)NC(=O)[C@H](CCCNC(=N)N)NC(=O)Cc1ccccc1)C(C)C [Compound 131] (HELM PEPTIDE1{[O=C(Cc1ccccc1)[*:2]].R.D.V.[CN[*:1]]}$$$$V2.0)
12,> 10,CNC(=O)[C@@H](NC(=O)[C@H](CC(=O)O)NC(=O)[C@H](CC(N)=O)NC(=O)Cc1ccccc1)C(C)C [Compound 132] (HELM PEPTIDE1{[O=C(Cc1ccccc1)[*:2]].N.D.V.[CN[*:1]]}$$$$V2.0)
13,> 10,CNC(=O)[C@@H](NC(=O)[C@H](CC(=O)O)NC(=O)C1(NC(=O)OC(C)(C)C)CCc2ccccc2C1)C(C)C (stereo partly shown) [Compound 133]
14,> 10,CNC(=O)[C@@H](NC(=O)[C@H](CC(=O)O)NC(=O)C1(NC(=O)Cc2ccccc2)CCc2ccccc2C1)C(C)C (stereo partly shown) [Compound 134]
15,> 10,CC(C)(C)OC(=O)N[C@@H](CC(=O)O)C(=O)N1CCC[C@H]1C(=O)NCC(=O)O [Compound 135] (HELM PEPTIDE1{[CC(C)(C)OC(=O)[*:2]].D.P.G}$$$$V2.0)
16,> 10,O=C(O)CNC(=O)[C@@H]1CCCN1C(=O)[C@H](CC(=O)O)NC(=O)Cc1ccccc1 [Compound 136] (HELM PEPTIDE1{[O=C(Cc1ccccc1)[*:2]].D.P.G}$$$$V2.0)
17,> 10,CC(C)C[C@H](NC(=O)Cc1ccccc1)C(=O)N[C@@H](CC(=O)O)C(=O)N1CCC[C@H]1C(=O)NC(C(=O)O)C(=O)O [Compound 138]
18,> 10,COC(=O)[C@@H](NC(=O)[C@H](CC(=O)O)NC(=O)[C@H](CC(C)C)N(C)C(=O)CCc1ccccc1)C(C)C [Compound 140] (HELM PEPTIDE1{[O=C(CCc1ccccc1)[*:2]].[meL].D.V.[CO[*:1]]}$$$$V2.0)

row,IC50 [µM],SMILES
1,> 10,COC(=O)[C@@H](NC(=O)[C@H](CC(=O)O)NC(=O)[C@H](CC(C)C)N(C)C(=O)Cc1ccc(O)cc1)C(C)C [Compound 141]
2,> 10,COC(=O)[C@@H](NC(=O)[C@H](CC(=O)O)NC(=O)[C@H](CC(C)C)N(C)C(=O)c1ccc2ccccc2n1)C(C)C [Compound 142]
3,> 10,COC(=O)[C@@H](NC(=O)[C@H](CC(=O)O)NC(=O)[C@H](CC(C)C)N(C)C(=O)CCCc1ccccc1)C(C)C [Compound 143]
4,< 0.05,CC(C)C[C@H](NC(=O)Cc1ccc(NC(=O)Nc2ccccc2O)cc1)C(=O)N[C@@H](CC(=O)O)C(=O)N[C@H](C(=O)N1CCC[C@H]1C(=O)O)C(C)C [Compound 144] ({X1-CO}-[X2]LDVP-OH)
5,< 0.05,CC(C)C[C@H](NC(=O)Cc1ccc(NC(=O)Nc2ccccc2)cc1)C(=O)N[C@@H](CC(=O)O)C(=O)N[C@H](C(=O)N1CCC[C@H]1C(=O)O)C(C)C [Compound 145] ({NHPh-CO}-[X2]LDVP-OH)
6,< 0.05,CSCC[C@H](NC(=O)Cc1ccc(NC(=O)Nc2ccccc2O)cc1)C(=O)N[C@@H](CC(=O)O)C(=O)N[C@H](C(=O)N1CCC[C@H]1C(=O)O)C(C)C [Compound 146] ({X1-CO}-[X2]MDVP-OH)
7,< 0.05,COc1cc(CC(=O)N[C@@H](CC(C)C)C(=O)N[C@@H](CC(=O)O)C(=O)N[C@H](C(=O)N2CCC[C@H]2C(N)=O)C(C)C)ccc1NC(=O)Nc1ccccc1 [Compound 147] ({NHPh-CO}-[X3]LDVP-NH2)
8,< 0.05,Cc1ccccc1NC(=O)Nc1ccc(CC(=O)N[C@@H](CC(C)C)C(=O)N[C@@H](CC(=O)O)C(=O)N[C@H](C(=O)N2CCC[C@H]2C(N)=O)C(C)C)cc1 [Compound 148] ({NH(2-Me-phenyl)-CO}-[X2]LDVP-NH2)
9,> 10,CC(C)[C@H](NC(=O)[C@H](CC(=O)O)NC(=O)OC(C)(C)C)C(=O)N1CCC[C@H]1C(=O)O [Compound 149] (HELM PEPTIDE1{[CC(C)(C)OC(=O)[*:2]].D.V.P}$$$$V2.0)
10,> 10,CC(C)[C@H](NC(=O)[C@H](CC(=O)O)NC(=O)CCCCc1ccccc1)C(=O)N1CCC[C@H]1C(=O)O [Compound 150]
11,> 10,C=CCC(CCc1ccccc1)C(=O)N[C@H](C(=O)N1CCC[C@H]1C(=O)O)C(C)C (stereo partly shown) [Compound 151]
12,> 10,CC(=O)N[C@@H](Cc1ccccc1)C(=O)N[C@@H](CC(C)C)C(=O)N[C@@H](CC(=O)O)C(=O)N[C@H](C(=O)O)C(C)C [Compound 152] (Ac-FLDV-OH)
13,> 10,COC(=O)[C@@H](NC(=O)[C@H](CC(=O)O)NC(=O)[C@H](CC(C)C)NC(=O)C1Cc2ccccc2CN1)C(C)C (stereo partly shown) [Compound 154] (HELM PEPTIDE1{[O=C(C1Cc2ccccc2CN1)[*:2]].L.D.V.[CO[*:1]]}$$$$V2.0)
14,> 10,CC(C)C[C@H](NC(=O)CCCc1ccccc1)C(=O)N[C@@H](CC(=O)O)C(=O)N[C@H](C(=O)O)C(C)C [Compound 155]
15,0.05 to 10,COC(=O)[C@@H](NC(=O)[C@H](CC(=O)O)NC(=O)[C@H](CC(C)C)NC(=O)c1cc2ccccc2cn1)C(C)C [Compound 156]
16,0.05 to 10,CC(C)CNC(=O)[C@H](CC(=O)O)NC(=O)[C@H](CC(C)C)NC(=O)c1cc2ccccc2cn1 [Compound 157]
17,> 10,CC(C)C[C@H](NC(=O)c1ccc2ccccc2n1)C(=O)N[C@@H](CC(=O)O)C(=O)N[C@H](C(=O)OC(C)(C)C)C(C)C [Compound 158]
18,> 10,CC(C)C[C@H](NC(=O)c1ccc2ccccc2n1)C(=O)N[C@@H](CC(=O)OCc1ccccc1)C(=O)N[C@H](C(=O)O)C(C)C [Compound 159]
